The results in this text go back to patent publication US20220135564A1, “DEUTERATED MITRAGYNINE ANALOGS AS SAFER OPIOID MODULATORS IN THE MITRAGYNINE CLASS” (The Trustees of Columbia University in the City of New York, priority 2019, published 2022).

One data set concerns male mice (C57BL/6J). The data set is described as follows: Rotarod test in mice (motor coordination). The class given is in vivo, mouse. The settings on record: male C57BL/6J mice, s.c., cumulative 3, 10, 30 mg/kg, compared to vehicle. Here is the method:
The rotarod test is useful for measuring the motor coordination of rodents and therefore, for identifying test drugs that induce ataxic effects. 3-Dehydromitragynine (DHM) reduces the performance of mice in this test in a dose-dependent manner; indicating an impairment of motor coordination by this compound (FIG. 1).
Animals. This study was conducted using male C57BL/6J mice, 7 weeks of age (n=10/treatment), purchased from The Jackson Laboratory (Bar Harbor, Me.). Animals were housed in groups of five and allowed to acclimate for 1 week prior to testing. Mice had ad libitum access to food and water and were maintained on a 12-hour light/dark cycle. All testing was done in the light cycle.
Drug. DHM hydrochloride was dissolved in double-distilled H2O containing 10% N-methyl-2-pyrrolidone (NMP). Drug or vehicle was administered subcutaneously 15 minutes prior to the start of behavioral testing at a volume of 10 mL/kg body weight. Dosing was performed cumulatively at 3, 10, and 30 mg/kg, with 1 hour between injections.
Rotarod Testing. On the test day, animals were acclimated to the testing room for 1 hour. An accelerating rotarod (Model 7650, UGO Basile, Comeria, VA, Italy) was used to measure the motor coordination of the animals. Time on the rotarod was measured by stopwatch, starting when animals were placed on the rod and ending at the time the animal fell off the apparatus. […]
Background: Falling from the rotarod earlier than controls is read as motor impairment.

For data set [1], the system named is mice (129Sv6 or CD-1 strain). The experiment in a line: Lethality assay in mice. The settings on record: s.c., lethality 24 h after administration. The class given is in vivo, mouse. Here is the method: Lethality Assay. Groups of mice (n=6 per dose, 129Sv6 or CD-1 strain) were treated subcutaneously (s.c.) with different doses of DHM and tested for lethality 24 h after drug administration.

The subject of the next data set is mice. The data set is described as follows: Analgesic activity of DHM in mice. The class given is in vivo, mouse.
Data set [2] can be described thus: Metabolic profiling of DHM in mouse liver S9 fraction (MS9). The settings on record: DHM 10 μM, MS9, 60-min incubation, positive ion mode. The format is in vitro ADME. The protocol: Analytical System. The metabolic profiling of DHM in mouse liver S9 fraction was performed using high performance liquid chromatography-tandem mass spectrometry (HPLC-MS/MS). A Shimadzu HPLC system comprising 2 isocratic pumps (LC-10ADvp), an autosampler (SIL-30ACMP), a system controller (CBM-20A), a high-pressure switching valve (FCV-20AH6), and a degasser (DGU-14A) was used for separations. Mass spectrometric analyses were performed using an API 4000 QTRAP mass spectrometer from Applied Biosystems/MDS Sciex (AB Sciex) with Turbo V ion source and TurboIonspray interface. Data acquisition and system control was performed using Analyst 1.6.3 software from AB Sciex.
Liver S9 Incubations. Liver S9 fraction pooled from male CD-1 mice was used. Incubations were carried out in 1.1 mL microtubes (in 96-well format plate) in aliquots of 40 μL each (2 for each time point; 0, 6, 16, 30, and 60 min). […] Control incubations were performed replacing the cofactor system with phosphate buffer. Test compound DHM (10 μM, final solvent concentration 1.6%) was incubated with S9 at 37° C., shaking at 100 rpm. Incubations were performed in duplicate. Five time points over 60 minutes (0, 6, 16, 30, and 60 min) were analyzed. […] Supernatants (two time points, 0 and 60 min) were analyzed for remaining parent compound and putative metabolites by HPLC-MS/MS.
General Strategy for Identification of Metabolites. […]

SMILES strings stand for the structures. Structures can show the parent of a compound that is named as a salt.

Take `CC[C@@H]1C[N+]2=C(C[C@@H]1/C(=C\OC)C(=O)OC)c1[nH]c3cccc(OC)c3c1CC2` [DHM, 3-Dehydromitragynine hydrochloride]: in the data set on male mice (C57BL/6J), the “motor coordination, latency to fall in the rotarod test” value is reported as “dramatically impairs motor coordination”. In addition, the “LD50 (95% confidence interval)” value is 48.4 (71.27-342.3) mg/kg in data set [1] (129Sv6 mice) and 74 (48.08-120.5) mg/kg in data set [1] (CD-1 mice). Besides, the “analgesic activity on its own” value with mice is “does not exhibit analgesic activity”. In addition, in data set [2], the “% Area” value turned out to be 20%.
